SMILES strings stand for the structures. Where only a bound is given, the exact number is not on record here.

The species entered for experiment [1] is Rattus norvegicus. As to the kind of experiment: Inhibitory concentration of compound against 45 [Ca2+] influx in neonatal rat cultured spinal sensory neurons. In kind it is functional.
For experiment [2], the species on record is Rattus norvegicus. As to the kind of experiment: Effective concentration of compound to induce 45 [Ca2+] influx in neonatal rat cultured spinal sensory neurons. In kind it is functional.

Broadly, the IC50 is the midpoint of a concentration-inhibition curve. A higher IC50 goes with weaker potency. The term EC50 denotes the concentration giving half of the maximal effect. A higher EC50 goes with a less potent agent. On to `CC(C)C(/N=C(\S)NCc1ccc(C(C)(C)C)cc1)c1ccc(NS(C)(=O)=O)cc1` (centres undefined), for which, in experiment [1], the IC50 stood at 3.24 µM. The same compound gave an EC50 in experiment [2] above 100 µM. In the same order, the values of `CCC(/N=C(\S)NCc1ccc(C(C)(C)C)cc1)c1ccc(NS(C)(=O)=O)cc1` (centres undefined) are 0.36 µM and above 100 µM. Taken in the same sequence, the figures for `CC(=O)Nc1ccc([C@@H](C)/N=C(\S)NCc2ccc(C(C)(C)C)cc2)cc1` were 3.6 µM and above 100 µM.

On to `CC(C)(C)c1ccc(CNC(=S)NCc2ccc(NS(C)(=O)=O)cc2)cc1`, for which the EC50 in experiment [2] is above 100 µM. `CC[C@@H](/N=C(\S)NCc1ccc(C(C)(C)C)cc1)c1ccc(NS(C)(=O)=O)cc1` had an IC50 in experiment [1] of 0.05 µM. The same compound showed an EC50 in experiment [2] above 100 µM. Taken in the same sequence, the figures for `C[C@@H](/N=C(\S)NCc1ccc(C(C)(C)C)cc1)c1ccc(N)cc1` were 3.3 µM and above 100 µM.

For the compound `C[C@@H](/N=C(\S)NCc1ccc(C(C)(C)C)cc1)c1ccc(C(C)(C)C)cc1`, in experiment [1], half-maximal inhibition (IC50) was put at 3.49 µM. Besides, the EC50 in experiment [2] is above 100 µM.

Regarding `CC(C)(C)c1ccc(C/N=C(\S)NC(c2ccccc2)c2ccc(NS(C)(=O)=O)cc2)cc1` (centres undefined), it took 16.7 µM to reach half-maximal inhibition in experiment [1] (IC50). In experiment [2], this compound showed a concentration giving a half-maximal response (EC50) above 100 µM.

In experiment [1], `CCCC(/N=C(\S)NCc1ccc(C(C)(C)C)cc1)c1ccc(NS(C)(=O)=O)cc1` (centres undefined) returned a concentration for half-maximal inhibition (IC50) of 1.49 µM. The compound further came in with an EC50 in experiment [2] above 100 µM. Taken in the same sequence, the figures for `CC(/N=C(\S)NCc1ccc(C(C)(C)C)cc1)c1ccc(NS(C)(=O)=O)cc1` (centres undefined) were 0.15 µM and above 100 µM. `C[C@@H](/N=C(\S)NCc1ccc(C(C)(C)C)cc1)c1ccccc1`: half-maximal inhibition in experiment [1] (IC50) was put at 4.96 µM. For the same compound, the 50% effective concentration (EC50) in experiment [2] is above 100 µM.

`C[C@@H](NC(=S)NCc1ccc(C(C)(C)C)cc1)c1ccc(NS(C)(=O)=O)cc1` gave an IC50 in experiment [1] of 0.05 µM. This compound also came in with a concentration for a half-maximal effect (EC50) in experiment [2] above 100 µM. The compound `Oc1cc2c(cc1O)CN(C(=S)NCCc1ccc(Cl)cc1)CCC2` [CAPSAZEPINE] registered a half-maximal effective concentration (EC50) in experiment [2] above 100 µM.

In the case of `C[C@H](/N=C(\S)NCc1ccc(C(C)(C)C)cc1)c1ccc(NS(C)(=O)=O)cc1`, the IC50 in experiment [1] stood at 1.47 µM. Besides, the EC50 in experiment [2] was above 100 µM. In the same order, the values of `C[C@H](/N=C(\S)NCc1ccc(C(C)(C)C)cc1)c1ccc([N+](=O)[O-])cc1` are 14.7 µM and above 100 µM. In the same order, the values of `C[C@H](/N=C(\S)NCc1ccc(C(C)(C)C)cc1)c1ccccc1` are 25.5 µM and above 100 µM. In the same order, the values of `C[C@@H](/N=C(\S)NCc1ccc(C(C)(C)C)cc1)c1ccc([N+](=O)[O-])cc1` are 0.58 µM and above 100 µM. As for `Cc1ccc(C(C)/N=C(\S)NCc2ccc(C(C)(C)C)cc2)cc1` (centres undefined), the IC50 in experiment [1] came to 0.4 µM. In experiment [2], this compound gave an EC50 above 100 µM.
